Test results taken from ChEMBL document CHEMBL5352406 (Eur J Med Chem, 2022).
pIC50: −log10 of the molar value.

Tests used:
HCT-116 [1] = assay: Antiproliferative activity against human HCT-116 cells assessed as cell growth inhibition after 72 hrs by MTT assay; format: functional
MCF7 = assay: Antiproliferative activity against human MCF7 cells assessed as cell growth inhibition after 72 hrs by MTT assay; format: functional
Acetylcholinesterase = Acetylcholinesterase (Electrophorus electricus, UniProt O42275); assay: Inhibition of electric eel AChE using acetylthiocholine […] as substrate for 20 mins by Ellman's method
[2] = biological target: CDK9/cyclin T1 (Homo sapiens) (UniProt O60563+P50750); assay: Inhibition of CDK9/CyclinT1 (unknown origin) at 500 nM by ADP-Glo kinase assay relative to control; format: protein-complex assay
[3] = biological target: T1, Cyclin-dependent kinase 5/CDK5 activator 1 (Homo sapiens) (UniProt Q00535+Q15078); assay: Inhibition of CDK5/p25 NCK (unknown origin) at 500 nM by ADP-Glo kinase assay relative to control; format: protein-complex assay
[4] = biological target: CDK7/Cyclin H/MNAT1 (Homo sapiens) (UniProt P51946+P50613+P51948); assay: Inhibition of CDK7/Cyclin H/MAT1 (unknown origin) at 500 nM by ADP-Glo kinase assay relative to control; format: protein-complex assay
[5] = biological target: T1, Cyclin-dependent kinase 5/CDK5 activator 1 (Homo sapiens); assay: Inhibition of CDK5/p35 NCK (unknown origin) at 500 nM by ADP-Glo kinase assay relative to control; format: protein-complex assay
[6] = biological target: Cyclin-dependent kinase 4/cyclin D1 (Homo sapiens) (UniProt P11802+P24385); assay: Inhibition of CDK4/Cyclin D1 (unknown origin) at 500 nM by ADP-Glo kinase assay relative to control; format: protein-complex assay
[7] = biological target: CDK4/Cyclin D3 (Homo sapiens) (UniProt P11802+P30281); assay: Inhibition of CDK4/Cyclin D3 (unknown origin) at 500 nM by ADP-Glo kinase assay relative to control; format: protein-complex assay
[8] = biological target: CDK6/cyclin D1 (Homo sapiens) (UniProt P24385+Q00534); assay: Inhibition of CDK6/Cyclin D1 (unknown origin) at 500 nM by ADP-Glo kinase assay relative to control; format: protein-complex assay
HCT-116 [9] = assay: Inhibition of cell migration in human HCT-116 cells after 48 hrs by Wound healing scratch assay; format: functional, cell-based; settings: dose 2-18 nM
HCT-116 [10] = assay: Inhibition of colony formation in human HCT-116 cells treated for 24 hrs followed by replaced with fresh culture media for 10 days by Colony formation assay; format: functional, cell-based; settings: dose 2-18 nM
HCT-116 [11] = assay: Induction of apoptosis in human HCT-116 cells assessed as viable cells at 10 nM measured after 48 hrs by Annexin V-FITC/PI assay (reference value: 88.5%); format: functional; settings: read-out: Activity
HCT-116 [12] = assay: Induction of apoptosis in human HCT-116 cells assessed as early apoptotic cells at 10 nM measured after 48 hrs by Annexin V-FITC/PI assay (reference value: 3.16%); format: functional
HCT-116 [13] = assay: Induction of apoptosis in human HCT-116 cells assessed as necrotic cells at 10 nM measured after 48 hrs by Annexin V-FITC/PI assay (reference value: 2.31%); format: functional
HCT-116 [14] = assay: Induction of apoptosis in human HCT-116 cells assessed as viable cells at 20 nM measured after 48 hrs by Annexin V-FITC/PI assay (reference value: 88.5%); format: functional; settings: read-out: Activity
HCT-116 [15] = assay: Induction of apoptosis in human HCT-116 cells assessed as late apoptotic cells at 20 nM measured after 48 hrs by Annexin V-FITC/PI assay (reference value: 6.06%); format: functional
HCT-116 [16] = assay: Induction of apoptosis in human HCT-116 cells assessed as necrotic cells at 20 nM measured after 48 hrs by Annexin V-FITC/PI assay (reference value: 2.31%); format: functional
HCT-116 [17] = assay: Cell cycle arrest in human HCT-116 cells assessed as accumulation of cells at G0-G1 phase at 10 nM measured after 48 hrs by flow cytometry (reference value: 62.18%); format: functional
HCT-116 [18] = assay: Cell cycle arrest in human HCT-116 cells assessed as accumulation of cells at S phase at 10 nM measured after 48 hrs by flow cytometry (reference value: 31.43%); format: functional
HCT-116 [19] = assay: Cell cycle arrest in human HCT-116 cells assessed as accumulation of cells at […] phase at 10 nM measured after 48 hrs by flow cytometry (reference value: 6.39%); format: functional
HCT-116 [20] = assay: Cell cycle arrest in human HCT-116 cells assessed as accumulation of cells at G0-G1 phase at 20 nM measured after 48 hrs by flow cytometry (reference value: 62.18%); format: functional
HCT-116 [21] = assay: Cell cycle arrest in human HCT-116 cells assessed as accumulation of cells at […] phase at 20 nM measured after 48 hrs by flow cytometry (reference value: 6.39%); format: functional
[22] = Acute toxicity in po dosed Kunming mouse assessed as survival measured for 2 weeks; format: organism-based; settings: in vivo
[23] = Acute toxicity in Kunming mouse assessed as survival at 20 mg/kg, po measured for 2 weeks; format: organism-based; settings: in vivo
[24] = Acute toxicity in Kunming mouse assessed as survival at 30 mg/kg, po measured for 2 weeks; format: organism-based; settings: in vivo
[25] = Acute toxicity in Kunming mouse assessed as survival at 46 mg/kg, po measured for 2 weeks; format: organism-based; settings: in vivo
[26] = Acute toxicity in Kunming mouse assessed as behavior change at 20 to 105 mg/kg, po measured for 2 weeks; format: organism-based; settings: in vivo, 336 h, dose 20-105 mg/kg
[27] = Half life in Sprague-Dawley rat at 2 mg/kg, iv; format: ADME, organism-based; settings: in vivo
[28] = Tmax in Sprague-Dawley rat at 20 mg/kg, po; format: ADME, organism-based; settings: in vivo
[29] = AUC (0 to t) in Sprague-Dawley rat at 20 mg/kg, po; format: ADME, organism-based; parameters: dose 20 mg/kg, route po; settings: in vivo
[30] = AUC (0 to infinity) in Sprague-Dawley rat at 2 mg/kg, iv; format: ADME, organism-based; parameters: dose 2 mg/kg, route iv; settings: in vivo
[31] = AUC (0 to infinity) in Sprague-Dawley rat at 20 mg/kg, po; format: ADME, organism-based; parameters: dose 20 mg/kg, route po; settings: in vivo
[32] = Clearance in Sprague-Dawley rat at 2 mg/kg, iv; format: ADME, organism-based; settings: in vivo
[33] = Volume of distribution at steady state in Sprague-Dawley rat at 2 mg/kg, iv; format: ADME, organism-based; settings: in vivo, read-out: Vdss
[34] = Oral bioavailability in Sprague-Dawley rat at 20 mg/kg; format: ADME, organism-based; settings: in vivo
HCT-116 [35] = assay: Antitumor activity against human HCT-116 cells xenografted in BALB/cA-nu mouse tumor model assessed as tumor weight growth inhibition at 10 mg/kg, intragastric administration for 21 days relative to control; format: functional; settings: HCT-116, 504 h, route ig, time 21 day, read-out: TGI
[36] = Toxicity in BALB/cA-nu mouse xenografted with human HCT116 cells assessed as liver injury by measuring ALT level at 10 mg/kg, intragastric administration for 21 days; format: organism-based, HCT-116; settings: in vivo, po, 504 h, time 21 day
[37] = Toxicity in BALB/cA-nu mouse xenografted with human HCT116 cells assessed as liver injury by measuring AST level at 10 mg/kg, intragastric administration for 21 days; format: organism-based, HCT-116; settings: in vivo, po, 504 h, time 21 day
CDK9/cyclin T1 = CDK9/cyclin T1 (Homo sapiens, UniProt P50750)
Sequence of CDK9/cyclin T1 (O60563 whole entry): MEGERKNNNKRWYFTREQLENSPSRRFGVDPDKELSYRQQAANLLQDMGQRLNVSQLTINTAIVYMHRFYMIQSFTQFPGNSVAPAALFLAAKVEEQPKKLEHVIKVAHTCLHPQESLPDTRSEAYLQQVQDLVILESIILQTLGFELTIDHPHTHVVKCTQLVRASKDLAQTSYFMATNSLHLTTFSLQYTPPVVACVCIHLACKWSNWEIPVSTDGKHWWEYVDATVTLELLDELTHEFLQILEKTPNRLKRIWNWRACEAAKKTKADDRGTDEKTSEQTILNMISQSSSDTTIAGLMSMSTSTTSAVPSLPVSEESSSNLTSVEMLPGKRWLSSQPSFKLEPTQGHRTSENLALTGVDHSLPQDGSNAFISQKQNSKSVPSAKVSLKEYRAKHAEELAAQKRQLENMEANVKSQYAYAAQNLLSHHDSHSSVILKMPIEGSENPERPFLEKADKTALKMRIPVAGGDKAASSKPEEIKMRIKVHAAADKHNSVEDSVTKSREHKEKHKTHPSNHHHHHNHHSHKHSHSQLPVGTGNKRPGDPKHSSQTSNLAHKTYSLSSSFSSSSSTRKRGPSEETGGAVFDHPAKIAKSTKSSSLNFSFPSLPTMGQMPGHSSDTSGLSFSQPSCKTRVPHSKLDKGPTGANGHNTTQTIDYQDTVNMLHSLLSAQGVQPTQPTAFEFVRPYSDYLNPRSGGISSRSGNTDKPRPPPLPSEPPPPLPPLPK
Sequence of CDK9/cyclin T1 (P50750 whole entry): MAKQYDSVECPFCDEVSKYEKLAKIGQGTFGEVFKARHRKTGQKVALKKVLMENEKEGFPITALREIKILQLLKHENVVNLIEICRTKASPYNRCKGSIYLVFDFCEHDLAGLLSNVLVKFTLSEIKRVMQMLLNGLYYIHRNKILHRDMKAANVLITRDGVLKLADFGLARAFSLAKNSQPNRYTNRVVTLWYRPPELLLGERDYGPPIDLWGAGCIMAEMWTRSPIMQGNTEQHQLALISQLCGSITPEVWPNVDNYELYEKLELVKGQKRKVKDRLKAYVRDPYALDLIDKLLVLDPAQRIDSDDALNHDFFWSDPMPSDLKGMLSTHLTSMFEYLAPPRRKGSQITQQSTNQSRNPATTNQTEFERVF
Description: Inhibition of CDK9/CyclinT1 (unknown origin) by ADP-Glo kinase assay

T1 sequence (Q00535 whole entry): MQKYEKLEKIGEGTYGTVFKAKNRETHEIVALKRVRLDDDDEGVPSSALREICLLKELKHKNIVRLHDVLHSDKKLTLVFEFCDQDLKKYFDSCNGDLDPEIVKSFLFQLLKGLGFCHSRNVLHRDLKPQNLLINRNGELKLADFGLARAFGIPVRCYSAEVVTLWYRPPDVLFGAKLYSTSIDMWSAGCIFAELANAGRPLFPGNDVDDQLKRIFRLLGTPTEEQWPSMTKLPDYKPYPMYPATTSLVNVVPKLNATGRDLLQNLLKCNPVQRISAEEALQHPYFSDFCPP
T1 sequence (Q15078 99-307 partner limits assumed): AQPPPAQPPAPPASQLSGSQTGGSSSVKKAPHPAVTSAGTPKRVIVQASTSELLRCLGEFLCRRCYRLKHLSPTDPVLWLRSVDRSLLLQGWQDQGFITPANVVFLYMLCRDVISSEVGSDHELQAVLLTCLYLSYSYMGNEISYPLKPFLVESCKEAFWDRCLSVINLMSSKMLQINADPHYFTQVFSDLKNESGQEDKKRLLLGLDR
Sequence of Acetylcholinesterase (O42275 whole entry): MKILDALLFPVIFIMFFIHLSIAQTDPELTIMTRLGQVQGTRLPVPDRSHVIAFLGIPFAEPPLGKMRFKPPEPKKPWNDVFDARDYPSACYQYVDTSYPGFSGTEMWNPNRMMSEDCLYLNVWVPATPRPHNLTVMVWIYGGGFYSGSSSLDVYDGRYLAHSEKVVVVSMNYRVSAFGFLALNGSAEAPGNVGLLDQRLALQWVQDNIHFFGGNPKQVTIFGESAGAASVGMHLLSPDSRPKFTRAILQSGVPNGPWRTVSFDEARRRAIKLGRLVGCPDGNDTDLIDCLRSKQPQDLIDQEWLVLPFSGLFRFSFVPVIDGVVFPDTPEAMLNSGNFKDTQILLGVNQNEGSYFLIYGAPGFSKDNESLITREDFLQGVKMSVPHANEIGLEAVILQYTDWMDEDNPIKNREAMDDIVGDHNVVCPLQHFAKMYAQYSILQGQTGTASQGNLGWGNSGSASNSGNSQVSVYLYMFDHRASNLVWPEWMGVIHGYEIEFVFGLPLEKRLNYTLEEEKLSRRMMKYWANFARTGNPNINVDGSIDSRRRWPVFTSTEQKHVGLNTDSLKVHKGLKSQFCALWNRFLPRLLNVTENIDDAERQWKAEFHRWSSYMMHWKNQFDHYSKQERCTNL

**Q.** Which GI50 (HCT-116 [1]) does the source give for `Cl.N[C@H]1CCN(c2c3c(nc4ccc(-c5ccnc(NC(=O)C6CC6)n5)cc24)CCCCC3)C1` here?
**A.** 6 nM

**Q.** What about the GI50 (MCF7) of the same compound?
**A.** 6 nM

**Q.** And the pIC50 (Acetylcholinesterase)?
**A.** 4.72

**Q.** And the inhibition [2]?
**A.** 99.8%

**Q.** What about the inhibition [3] of the same compound?
**A.** 64.5%

**Q.** And the inhibition [4]?
**A.** 60.4%

**Q.** What about the inhibition [5] of the same compound?
**A.** 41.4%

**Q.** What about the inhibition [6] of the same compound?
**A.** 31.6%

**Q.** What about the inhibition [7] of the same compound?
**A.** 29.4%

**Q.** And the inhibition [8]?
**A.** 22.1%

**Q.** And the inhibition (HCT-116 [9])?
**A.** Dose-Dependent Effect

**Q.** And the inhibition (HCT-116 [10])?
**A.** Dose-Dependent Effect

**Q.** What about the viability at 0.01 µM (HCT-116 [11]) of the same compound?
**A.** 74%

**Q.** And the Activity (HCT-116 [12])?
**A.** 16.3%

**Q.** And the Activity (HCT-116 [13])?
**A.** 1.48%

**Q.** What about the viability at 0.02 µM (HCT-116 [14]) of the same compound?
**A.** 52.5%

**Q.** And the Activity (HCT-116 [15])?
**A.** 13.6%

**Q.** What about the Activity (HCT-116 [16]) of the same compound?
**A.** 1.23%

**Q.** And the Activity (HCT-116 [17])?
**A.** 46.65%

**Q.** And the Activity (HCT-116 [18])?
**A.** 42.75%

**Q.** And the Activity (HCT-116 [19])?
**A.** 10.6%

**Q.** And the Activity (HCT-116 [20])?
**A.** 37.51%

**Q.** And the Activity (HCT-116 [21])?
**A.** 13.11%

**Q.** What about the LD50 at 336 h [22] of the same compound?
**A.** 104 mg/kg

**Q.** What about the survival at 336 h [23] of the same compound?
**A.** 100%

**Q.** What about the survival at 336 h [24] of the same compound?
**A.** 100%

**Q.** And the survival at 336 h [25]?
**A.** 100%

**Q.** What about the Activity [26] of the same compound?
**A.** Non-Toxic

**Q.** What about the half-life [27] of the same compound?
**A.** 27.7 min

**Q.** What about the Tmax [28] of the same compound?
**A.** 60 min

**Q.** And the AUC(0-t) [29]?
**A.** 302 ng·h/mL

**Q.** What about the AUC(0-inf) [30] of the same compound?
**A.** 115 ng·h/mL

**Q.** What about the AUC(0-inf) [31] of the same compound?
**A.** 316 ng·h/mL

**Q.** What about the clearance [32] of the same compound?
**A.** 312 mL/min/kg

**Q.** And the Vd [33]?
**A.** 12.6 L/kg

**Q.** What about the bioavailability [34] of the same compound?
**A.** 27.5%

**Q.** And the inhibition in vivo at 10 mg/kg (HCT-116 [35])?
**A.** 62.4%

**Q.** And the Activity [36]?
**A.** Non-Toxic

**Q.** What about the Activity [37] of the same compound?
**A.** Non-Toxic

**Q.** And the pIC50 (CDK9/cyclin T1)?
**A.** 8.62
